# Measured values taken from patent US20240417406A1, “NITROGEN-CONTAINING TRICYCLIC COMPOUND AND PHARMACEUTICAL USE THEREOF” (JAPAN TOBACCO INC., priority 2021, published 2024).
# Molecular target: human PDHK2 (hPDHK2) (Homo sapiens (Human), UniProt Q15119)
# Experiment: Inhibitory action of PDHK2 activity (PDH/hPDHK2 complex, residual PDH activity by NADH absorbance at 340 nm)
# Type: biochemical
# Details: FLAG-tagged recombinant hPDHK2 with porcine heart PDH complex; PDHK reaction 45 min at room temperature
# Method: In the case of human PDHK2 (hPDHK2, NCBI Reference Database Accession number NM_002611.4), modified hPDHK2 cDNA wherein FLAG-Tag sequence was added to the N terminal of hPDHK2 cDNA clone (pReceiver-M01/PDK2-GeneCopoeia) as the base was prepared by polymerase chain reaction (PCR) and ligated to the NdeI/EcoRI site of pET-17b vector (Merck KGaA, Catalog Number 69663-3). The recombinant construct was transformed into Escherichia coli DH5a. The recombinant clones were identified, and plasmid DNA was isolated and subjected to the DNA sequence analysis. One clone which had the expected nucleic acid sequence was selected for expression work.
# For expression of hPDHK2 activity, Escherichia coli strain BL21(DE3) cells (Merck KGaA, Catalog Number 69450-4) were transformed with the pET17b vector containing modified hPDHK2 cDNA. The Escherichia coli were grown to an optical density 0.6 ([…]) at 30° C. Protein expression was induced by the addition of 500 μmol/L isopropyl-β-thiogalactopyranoside. The Escherichia coli were cultured at 20° C. for 17 to for 18 hr and harvested by centrifugation. The harvested Escherichia coli was resuspended in a suspension buffer (20 mmol/L HEPES-NaOH, 500 mmol/L sodium chloride, 1% ethylene glycol, 0.1% Pluronic (registered trademark) F-68 (pH 8.0), cOmplete, EDTA-free (Roche) (pH 8.0)), and disrupted by a microfluidizer M-110H (MIZUHO INDUSTRIAL CO., LTD.). The precipitate was removed by centrifugation and the supernatant was added to DDDDK-tagged Protein PURIFICATION GEL (MEDICAL & BIOLOGICAL LABORATORIES CO., LTD., Code No. 3329). DDDDK-tagged Protein PURIFICATION GEL was washed with a washing buffer (20 mmol/L HEPES-NaOH, 500 mmol/L sodium chloride, 1% ethylene glycol, 0.1% Pluronic F-68 (pH 8.0)) and the bound protein was eluted with elution buffer 1 (20 mmol/L HEPES-NaOH, 100 μg/mL peptide (amino acid sequence DYKDDDDK) (SEQ ID NO: 1), 500 mmol/L sodium chloride, 1% ethylene glycol, 0.1% Pluronic F-68 (pH 8.0)). The eluted fractions containing FLAG-Tagged protein were pooled, concentrated by an ultrafiltration method, added to a gel filtration column (HiLoad 26/60 Superdex 200 (GE Healthcare Life Sciences, Code No. 17-1070-01)), and eluted with elution buffer 2 (20 mmol/L HEPES-NaOH, 150 mmol/L sodium chloride, 0.5 mmol/L ethylenediaminetetraacetic acid (EDTA), 1% ethylene glycol, 0.1% Pluronic F-68 (pH 8.0)). The eluted fractions were pooled and preserved at −80° C.
# PDH (porcine heart PDH complex, Sigma P7032) and 0.5 μg/mL hPDHK2 were mixed in an assay buffer (50 mmol/L 3-morpholinopropanesulfonic acid (pH 7.0), 20 mmol/L dipotassium hydrogen phosphate, 60 mmol/L potassium chloride, 2 mmol/L magnesium chloride, 0.4 mmol/L EDTA, 0.2% poloxamer, 2 mmol/L dithiothreitol) so that the final concentration of PDH was 0.025 U/mL, and the mixture was incubated at 4° C. overnight to obtain a PDH/hPDHK2 complex solution.
# PDH was mixed with the assay buffer so that the final concentration was 0.025 U/mL, and the mixture was incubated at 4° C. overnight to prepare a PDH solution.
# The test compounds were diluted with DMSO. […] DMSO (1.5 μL) was added to control wells instead of test compound. In addition, DMSO (1.5 μL) was added to blank wells instead of the test compound, and PDH solution was added instead of the PDH/hPDHK2 complex solution. To measure an inhibitory action of the test compound on the PDHK activity inherent in the PDH solution, a test compound was added and the PDH solution instead of the PDH/hPDHK2 complex solution was added to a blank+test compound well.
# Then, 10 μL of substrates (5 mmol/L sodium pyruvate, 5 mmol/L Coenzyme A, 12 mmol/L NAD, 5 mmol/L thiamine pyrophosphate, diluted with assay buffer) were added. The mixture was incubated at room temperature for 90 min, and the residual PDH activity was measured.
# The absorbance of each well at 340 nm was measured using a microplate reader to detect NADH produced by the PDH reaction. […]
row,Structure (SMILES),IC50
1,"C[C@H]1Cn2nccc2-c2onc([C@@](C)(O)C(F)(F)F)c21 [Example 60, (R)-1,1,1-trifluoro-2-((R)-4-methyl-4,5-dihydroisoxazolo[5,4-c]pyrazolo[1,5-a]pyridin-3-yl)propan-2-ol]",0.0067 µM
2,"C[C@H]1Cn2nc(C3CCOCC3)cc2-c2onc([C@@](C)(O)C(F)(F)F)c21 [Example 61, (R)-1,1,1-trifluoro-2-((R)-4-methyl-8-(tetrahydro-2H-pyran-4-yl)-4,5-dihydroisoxazolo[5,4-c]pyrazolo[1,5-a]pyridin-3-yl)propan-2-ol]",0.0098 µM
3,"C[C@H]1Cn2nc(OCCC(C)(C)O)cc2-c2onc([C@@](C)(O)C(F)(F)F)c21 [Example 62, 2-methyl-4-(((R)-4-methyl-3-((R)-1,1,1-trifluoro-2-hydroxypropan-2-yl)-4,5-dihydroisoxazolo[5,4-c]pyrazolo[1,5-a]pyridin-8-yl)oxy)butan-2-ol]",0.008 µM
4,"C[C@H]1Cn2nc(OCF)cc2-c2onc([C@@](C)(O)C(F)(F)F)c21 [Example 64, (R)-1,1,1-trifluoro-2-((R)-8-(fluoromethoxy)-4-methyl-4,5-dihydroisoxazolo[5,4-c]pyrazolo[1,5-a]pyridin-3-yl)propan-2-ol]",0.0075 µM
5,"C[C@H]1Cn2nc(O[C@H]3CC[C@](C)(O)CC3)cc2-c2onc([C@@](C)(O)C(F)(F)F)c21 [Example 65, (1R,4r)-1-methyl-4-(((R)-4-methyl-3-((R)-1,1,1-trifluoro-2-hydroxypropan-2-yl)-4,5-dihydroisoxazolo[5,4-c]pyrazolo[1,5-a]pyridin-8-yl)oxy)cyclohexan-1-ol]",0.0066 µM
6,C[C@H]1Cn2nc(OCCF)cc2-c2cnc([C@@](C)(O)C(F)(F)F)n21 [Example 66],0.0137 µM
7,COc1cc2n(n1)C[C@H](C)n1c-2cnc1[C@@](C)(O)C(F)(F)F [Example 67],0.0115 µM
8,C[C@H]1Cn2nc(C34CC(CO)(C3)C4)cc2-c2cnc([C@@](C)(O)C(F)(F)F)n21 [Example 70],0.0212 µM
9,"C[C@H]1Cn2nc(C34CCC(C#N)(CC3)CC4)cc2-c2cnc([C@@](C)(O)C(F)(F)F)n21 [Example 71, 4-((S)-5-methyl-3-((R)-1,1,1-trifluoro-2-hydroxypropan-2-yl)-5,6-dihydroimidazo[1,5-a]pyrazolo[5,1-c]pyrazin-9-yl)bicyclo[2.2.2]octane-1-carbonitrile]",0.0066 µM
10,C[C@H]1Cn2nc(C34CC(C#N)(C3)C4)cc2-c2cnc([C@@](C)(O)C(F)(F)F)n21 [Example 72],0.0123 µM
11,C[C@H]1Cn2nc(N3CCOCC3)cc2-c2cnc([C@@](C)(O)C(F)(F)F)n21 [Example 74],0.0184 µM
12,C[C@H]1Cn2nc(C34CC(C(C)(C)O)(C3)C4)cc2-c2cnc([C@@](C)(O)C(F)(F)F)n21 [Example 76],0.0145 µM
13,C[C@H]1Cn2nc(N3CC4CC(C3)C4(F)F)cc2-c2cnc([C@@](C)(O)C(F)(F)F)n21 [Example 79],0.0352 µM
14,C[C@H]1Cn2nc(N3C[C@H]4C[C@@H]3CO4)cc2-c2cnc([C@@](C)(O)C(F)(F)F)n21 [Example 82],0.034 µM
15,C[C@H]1Cn2nc(N3CC4CC3C4)cc2-c2cnc([C@@](C)(O)C(F)(F)F)n21 [Example 83],0.0186 µM
16,"C[C@H]1Cn2nc(N3CC4(C3)CC(F)(F)C4)cc2-c2cnc([C@@](C)(O)C(F)(F)F)n21 [Example 84, (R)-2-((S)-9-(6,6-difluoro-2-azaspiro[3.3]heptan-2-yl)-5-methyl-5,6-dihydroimidazo[1,5-a]pyrazolo[5,1-c]pyrazin-3-yl)-1,1,1-trifluoropropan-2-ol]",0.0365 µM
17,C[C@H]1Cn2nc(C34CCC(CO)(CC3)C4)cc2-c2cnc([C@@](C)(O)C(F)(F)F)n21 [Example 87],0.011 µM
18,"C[C@H]1Cn2nc(C34CCC(C#N)(CC3)OC4)cc2-c2cnc([C@@](C)(O)C(F)(F)F)n21 [Example 88, 4-((S)-5-methyl-3-((R)-1,1,1-trifluoro-2-hydroxypropan-2-yl)-5,6-dihydroimidazo[1,5-a]pyrazolo[5,1-c]pyrazin-9-yl)-2-oxabicyclo[2.2.2]octane-1-carbonitrile]",0.0238 µM
19,C[C@H]1Cn2nc(OCC34CCC(C#N)(CC3)CC4)cc2-c2cnc([C@@](C)(O)C(F)(F)F)n21 [Example 89],0.0377 µM
20,"C[C@H]1Cn2nc(C34CCC(C#N)(C3)C4)cc2-c2cnc([C@@](C)(O)C(F)(F)F)n21 [Example 91, 4-((S)-5-methyl-3-((R)-1,1,1-trifluoro-2-hydroxypropan-2-yl)-5,6-dihydroimidazo[1,5-a]pyrazolo[5,1-c]pyrazin-9-yl)bicyclo[2.1.1]hexane-1-carbonitrile]",0.0233 µM
21,C[C@H]1Cn2nc(C34CCC(CO)(C3)C4)cc2-c2cnc([C@@](C)(O)C(F)(F)F)n21 [Example 92],0.0319 µM
22,"C[C@H]1Cn2nc(C34CCC(C#N)(CC3)CO4)cc2-c2cnc([C@@](C)(O)C(F)(F)F)n21 [Example 93, 1-((S)-5-methyl-3-((R)-1,1,1-trifluoro-2-hydroxypropan-2-yl)-5,6-dihydroimidazo[1,5-a]pyrazolo[5,1-c]pyrazin-9-yl)-2-oxabicyclo[2.2.2]octane-4-carbonitrile]",0.0334 µM

# The remaining compounds from weak to strong by IC50, led by results:
row,IC50,Structure (SMILES)
1,0.0434 µM,C[C@H]1Cn2nc(N3C[C@H]4COC[C@H]4C3)cc2-c2cnc([C@@](C)(O)C(F)(F)F)n21 [Example 80]
2,0.0305 µM,C[C@H]1Cn2nc(OCC34CCC(C#N)(CC3)C4)cc2-c2cnc([C@@](C)(O)C(F)(F)F)n21 [Example 90]
3,0.0298 µM,C[C@H]1Cn2nc(N3C[C@@H]4C[C@H]3CO4)cc2-c2cnc([C@@](C)(O)C(F)(F)F)n21 [Example 81]
4,0.018 µM,C[C@H]1Cn2nc(C34CCC(CO)(CC3)CC4)cc2-c2cnc([C@@](C)(O)C(F)(F)F)n21 [Example 69]
5,0.0166 µM,C[C@H]1Cn2nc(C34CCC(CO)(CC3)OC4)cc2-c2cnc([C@@](C)(O)C(F)(F)F)n21 [Example 85]
6,0.0152 µM,COCCOc1cc2n(n1)C[C@H](C)n1c-2cnc1[C@@](C)(O)C(F)(F)F [Example 68]
7,0.0151 µM,C[C@H]1Cn2nc(N3CC4C(C3)C4(F)F)cc2-c2cnc([C@@](C)(O)C(F)(F)F)n21 (stereo partly drawn) [Example 78]
8,0.0144 µM,C[C@H]1Cn2nc(N3CCC4(CC3)COC4)cc2-c2cnc([C@@](C)(O)C(F)(F)F)n21 [Example 77]
9,0.0141 µM,"C[C@H]1Cn2nc(C34CCC(C#N)(CC3)C4)cc2-c2cnc([C@@](C)(O)C(F)(F)F)n21 [Example 86, 4-((S)-5-methyl-3-((R)-1,1,1-trifluoro-2-hydroxypropan-2-yl)-5,6-dihydroimidazo[1,5-a]pyrazolo[5,1-c]pyrazin-9-yl)bicyclo[2.2.1]heptane-1-carbonitrile]"
10,0.01 µM,C[C@H]1Cn2nc(C34CCC(C(C)(C)O)(CC3)CC4)cc2-c2cnc([C@@](C)(O)C(F)(F)F)n21 [Example 75]
11,0.0091 µM,"C[C@H]1Cn2nc(O[C@H]3C[C@](C)(C#N)C3)cc2-c2onc([C@@](C)(O)C(F)(F)F)c21 [Example 63, (1R,3r)-1-methyl-3-(((R)-4-methyl-3-((R)-1,1,1-trifluoro-2-hydroxypropan-2-yl)-4,5-dihydroisoxazolo[5,4-c]pyrazolo[1,5-a]pyridin-8-yl)oxy)cyclobutane-1-carbonitrile]"
